# In paper PMC5908160, “Inhibition of sperm motility in male macaques with EP055, a potential non-hormonal male contraceptive” (PLoS ONE, 2018):
# Experiment: Blood constituents and health monitoring in rhesus males after EP055 infusion
# Format: in vivo, Macaca mulatta
# Design: Hematocrit: unit not given here
# Conditions: post low dose 75–80 mg/kg
# From the text: The physical and behavioral condition of animals are monitored daily at ONPRC. Additional monitoring by Division of Comparative Medicine and/or clinical veterinary staff was provided immediately, at 1 hr, 2 hr and 6 hr post-administration of the contraceptive compound, and daily for up to 30 days after the final drug injection. Criteria used to assess animal health and welfare include: stool and urine quality and quantity, appetite and attitude (bright and alert, quiet, lethargic), pain (not eating, not moving, hunched over, lethargy/disinterest), vomiting, diarrhea, nausea, dehydration (unkempt coat, lack of urine production), and signs of wounds of injury. In addition, the ONPRC Standardized Pain Scoring system is used post-surgically to monitor an animal’s progress and improvement over time. Major criteria include animal appearance, posture, activity (including stool and urine production), vocalization and atypical behaviors.
# Prior to infusion of EP055, each male was sedated with ketamine by the surgical staff at ONPRC and transported to the operating room. After positioning in dorsal recumbency, the male was intubated and placed under inhalant (isoflurane) anesthesia. Bilateral intravenous catheters were placed in cephalic veins, one for infusion and one for back-up. A percutaneous arterial line was placed in the right femoral artery for direct blood pressure measurement. Invasive blood pressure, heart rate, SpO2, and respirations were monitored by the surgical staff throughout the procedure. Initially, the low doses of EP055 in 5% DMSO-PBS 7.6 was infused by i.v. at 75-80 mg/kg, using a Medfusion 3500 pump (Smiths Medical, St. Paul, MN), and was started at a low flow rate ([…]). In 3 of 4 males, a 5-10% increase in blood pressure and heart rate were noted within the first 2-3 minutes of infusion of EP055. In these cases, the infusion was temporarily suspended until these parameters subsequently declined to normal. The infusion rate was then doubled to 1.2 ml/kg/min after 5-10 minutes and the final volume of EP055 infusate was administered. Blood pressure and heart rate remained normal throughout the rest of the infusion interval. The total volume of EP055 infusate ranged from 72 ml – 136 ml, depending upon the weight of the animal, and the duration of infusion was 10-13 minutes. Following completion of the infusion, all animals recovered normally. Animals were monitored by clinical veterinary staff immediately, at 1 hr, 2 hr and 6-8 hr post-infusion, and daily for up to 30 days after the final infusion of EP055. […] Two weeks after the infusion of the low dose and collection of the next set of baseline semen samples, males were infused with the high dose of EP055 (125-130 mg/kg) as described above, and monitored similarly.
# Blood was collected from the brachial vein at the time of each semen collection, and used to determine complete blood counts and serum biochemistry tests (including electrolytes, glucose, lipids, proteins, enzymes and metabolic by-products) as performed in the Clinical Pathology Laboratory in the Division of Comparative Medicine at ONPRC.
structure (smiles),measurement,setting,value
COC(=O)NNc1nc(Nc2ccc(NC(C)=O)c(O)c2)nc(SCC(=O)O)n1 [EP055],GGT,6-8 hrs,70.5 ± 2.1- U/l
same,GLUC,6-8 hrs,89.0 ± 6.7 mg/dL
same,Hematocrit,6-8 hrs,44.3 ± 1.0
same,Hemoglobin,6-8 hrs,14.4 ± 0.3 g/dL
same,Leukocytes,6-8 hrs,12.8 ± 2.7 x 10^3/mm^3
same,Lymphocytes,6-8 hrs,18.8 ± 1.9%
same,MCH,6-8 hrs,24.5 ± 0.3 pg/cell
same,MCHC,6-8 hrs,32.6 ± 0.1 g/dL
same,MCV,6-8 hrs,75.1 ± 1.2 fl/cell
same,Magnesium,6-8 hrs,1.8 ± 0.0 mg/dL
same,Monocytes,6-8 hrs,4.9 ± 0.1%
same,Neutrophils,6-8 hrs,9.5 ± 2.0 x 10^3/mm^3
same,Phosphorus,6-8 hrs,5.3 ± 0.3 mg/dL
same,Platelets,6-8 hrs,268.5 ± 38.7 x 10^6
same,Potassium,6-8 hrs,3.9 ± 0.2 mEq/l
same,Sodium,6-8 hrs,149.0 ± 0.9 mEq/l
same,Total Bilirubin,6-8 hrs,0.2 ± 0.1 mg/dL
same,Total Protein,6-8 hrs,7.5 ± 0.0 g/dL
same,Triglycerides,6-8 hrs,63.8 ± 5.7 mg/dL
same,ALT,28-30 hrs,54.3 ± 3.8 U/l
same,AST,28-30 hrs,51.0 ± 6.6 U/l
same,Albumin,28-30 hrs,4.8 ± 0.1 g/dL
same,Alkaline Phosphatase,28-30 hrs,128.5 ± 12.5 U/l
same,BUN,28-30 hrs,15.0 ± 1.5 mg/dL
same,Basophils,28-30 hrs,0.6 ± 0.1%
same,CREAT,28-30 hrs,1.0 ± 0.0 mg/dL
same,Chloride,28-30 hrs,110.3 ± 0.9 mEq/l
same,Cholesterol,28-30 hrs,149.5 ± 19.5 mg/dL
same,Eosinophils,28-30 hrs,1.4 ± 0.1%
same,Erythrocytes,28-30 hrs,5.9 ± 0.3 x 10^6/mm^3
same,GGT,28-30 hrs,72.5 ± 3.9 U/l
same,GLUC,28-30 hrs,90.0 ± 10.3 mg/dL
same,Hematocrit,28-30 hrs,43.9 ± 1.9
same,Hemoglobin,28-30 hrs,14.4 ± 0.7 g/dL
same,Leukocytes,28-30 hrs,11.8 ± 3.1 x 10^3/mm^3
same,Lymphocytes,28-30 hrs,31.1 ± 4.8%
same,MCH,28-30 hrs,24.4 ± 0.2 pg/cell
same,MCHC,28-30 hrs,32.7 ± 0.3 g/dL
same,MCV,28-30 hrs,74.7 ± 1.0 fl/cell
same,Magnesium,28-30 hrs,1.7 ± 0.1 mg/dL
same,Monocytes,28-30 hrs,5.7 ± 0.3%
same,Neutrophils,28-30 hrs,7.2 ± 2.0 x 10^3/mm^3
same,Phosphorus,28-30 hrs,4.0 ± 0.5 mg/dL
same,Platelets,28-30 hrs,185.8 ± 35.8 x 10^6
same,Potassium,28-30 hrs,4.2 ± 0.2 mEq/l
same,Sodium,28-30 hrs,149.0 ± 1.1 mEq/l
same,Total Bilirubin,28-30 hrs,0.2 ± 0.0 mg/dL
same,Total Protein,28-30 hrs,7.7 ± 0.2 g/dL
same,Triglycerides,28-30 hrs,75.3 ± 28.9 mg/dL
same,ALT,78 hrs,60.3 ± 12.2 U/l
same,AST,78 hrs,73.8 ± 33.6 U/l
same,Albumin,78 hrs,4.7 ± 0.1 g/dL
same,Alkaline Phosphatase,78 hrs,125.3 ± 16.3 U/l
same,BUN,78 hrs,18.8 ± 3.2 mg/dL
same,Basophils,78 hrs,0.6 ± 0.1%
same,CREAT,78 hrs,1.0 ± 0.0 mg/dL
same,Chloride,78 hrs,108.0 ± 0.8 mEq/l
same,Cholesterol,78 hrs,144.0 ± 17.0 mg/dL
same,Eosinophils,78 hrs,2.0 ± 0.5%
same,Erythrocytes,78 hrs,5.5 ± 0.2 x 10^6/mm^3
same,GGT,78 hrs,65.3 ± 2.7 U/l
same,GLUC,78 hrs,91.5 ± 7.4 mg/dL
same,Hematocrit,78 hrs,40.6 ± 0.8
same,Hemoglobin,78 hrs,13.3 ± 0.3 g/dL
same,Leukocytes,78 hrs,11.2 ± 3.3 x 10^3/mm^3
same,Lymphocytes,78 hrs,33.7 ± 5.0%
same,MCH,78 hrs,24.5 ± 0.3 pg/cell
same,MCHC,78 hrs,32.8 ± 0.1 g/dL
same,MCV,78 hrs,74.6 ± 1.2 fl/cell
same,Magnesium,78 hrs,1.8 ± 0.0 mg/dL
same,Monocytes,78 hrs,5.5 ± 0.5%
same,Neutrophils,78 hrs,6.6 ± 2.2 x 10^3/mm^3
same,Phosphorus,78 hrs,4.1 ± 0.6 mg/dL
same,Platelets,78 hrs,270.8 ± 25.8 x 10^6
same,Potassium,78 hrs,4.0 ± 0.1 mEq/l
same,Sodium,78 hrs,147.0 ± 1.2 mEq/l
same,Total Bilirubin,78 hrs,0.2 ± 0.0 mg/dL
same,Total Protein,78 hrs,7.6 ± 0.1 g/dL
same,Triglycerides,78 hrs,57.3 ± 14.1 mg/dL
same,ALT,Recovery,31.7 ± 2.3 U/l
same,AST,Recovery,42.3 ± 2.6 U/l
same,Albumin,Recovery,4.3 ± 0.1 g/dL
same,Alkaline Phosphatase,Recovery,79.0 ± 2.3 U/l
same,BUN,Recovery,16.5 ± 1.9 mg/dL
same,Basophils,Recovery,0.5 ± 0.1%
same,CREAT,Recovery,0.8 ± 0.0 mg/dL
same,Chloride,Recovery,107.0 ± 0.0 mEq/l
same,Cholesterol,Recovery,138.7 ± 19.3 mg/dL
same,Eosinophils,Recovery,1.4 ± 0.3%
same,Erythrocytes,Recovery,5.7 ± 0.2- x 10^6/mm^3
same,GGT,Recovery,62.3 ± 1.8 U/l
same,GLUC,Recovery,58.3 ± 4.5 mg/dL
same,Hematocrit,Recovery,42.4 ± 1.1
same,Hemoglobin,Recovery,13.8 ± 0.4 g/dL
same,Leukocytes,Recovery,5.9 ± 1.0 x 10^3/mm^3
same,Lymphocytes,Recovery,44.8 ± 5.4%
same,MCH,Recovery,24.1 ± 0.4 pg/cell
same,MCHC,Recovery,32.5 ± 0.2 g/dL
same,MCV,Recovery,74.1 ± 0.9 fl/cell
same,Magnesium,Recovery,1.9 ± 0.1 mg/dL
same,Monocytes,Recovery,6.4 ± 0.2%
same,Neutrophils,Recovery,4.5 ± 1.7 x 10^3/mm^3
same,Phosphorus,Recovery,5.1 ± 0.2 mg/dL
same,Platelets,Recovery,295.7 ± 11.8 x 10^6
same,Potassium,Recovery,4.0 ± 0.1 mEq/l
same,Sodium,Recovery,146.7 ± 0.3 mEq/l
same,Total Bilirubin,Recovery,0.2 ± 0.0 mg/dL
same,Total Protein,Recovery,7.1 ± 0.1 g/dL
same,Triglycerides,Recovery,38.0 ± 6.9 mg/dL
